Assay results reported in patent US8354414B2, “Substituted bicyclic pyrimidines” (Cephalon, Inc, priority 2006, dated 2013).
Where two headings read alike, the source gives them in different places.

How the values were obtained:
CDK5/GST-p25 = target: T1, CDK5/GST-p25 (Homo sapiens, UniProt Q00535); test: Inhibition of CDK5/GST-p25 kinase activity (ELISA with time-resolved fluorescence readout); type: biochemical
T1 construct: The final construct, encoding for full-length human CDK5; made in house; host or cells: Sf21 insect cells (baculovirus co-infection)
T1 sequence (Q00535 whole entry): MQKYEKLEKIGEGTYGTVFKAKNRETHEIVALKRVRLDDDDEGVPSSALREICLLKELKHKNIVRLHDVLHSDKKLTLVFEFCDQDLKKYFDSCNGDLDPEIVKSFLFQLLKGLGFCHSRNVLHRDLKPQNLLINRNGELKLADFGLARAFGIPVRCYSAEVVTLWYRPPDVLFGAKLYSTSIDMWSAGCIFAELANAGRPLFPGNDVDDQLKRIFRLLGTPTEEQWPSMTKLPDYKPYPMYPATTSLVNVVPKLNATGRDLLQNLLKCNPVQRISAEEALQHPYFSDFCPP
T1 sequence (Q15078 108-307 partner limits assumed): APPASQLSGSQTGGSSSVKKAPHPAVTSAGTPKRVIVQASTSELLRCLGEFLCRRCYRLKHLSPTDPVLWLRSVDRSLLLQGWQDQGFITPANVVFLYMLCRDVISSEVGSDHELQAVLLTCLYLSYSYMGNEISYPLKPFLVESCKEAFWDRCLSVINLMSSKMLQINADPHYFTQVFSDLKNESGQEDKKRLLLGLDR
In short: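 The substrate, GST-Rb(773-928), was immobilised on plates and phosphorylated for 20 min at 37 °C by 2 ng/ml CDK5/GST-p25 in HEPES pH 7.2 with 10 µM ATP and 10 mM MgCl2. Both proteins were human and co-expressed in insect cells. Ser-780 phosphorylation was read by europium time-resolved fluorescence and converted to IC50.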

His6-GSK-3β = target: T2, His6-GSK-3β (Homo sapiens, UniProt P49841); test: Inhibition of His6-GSK-3β kinase activity (ELISA-based format, time-resolved fluorescence readout); type: biochemical; conditions: for IC50: read-out: GSK3β IC50
T2 construct: made in house; host or cells: Sf21 insect cells (baculovirus)
T2 sequence (P49841 2-419): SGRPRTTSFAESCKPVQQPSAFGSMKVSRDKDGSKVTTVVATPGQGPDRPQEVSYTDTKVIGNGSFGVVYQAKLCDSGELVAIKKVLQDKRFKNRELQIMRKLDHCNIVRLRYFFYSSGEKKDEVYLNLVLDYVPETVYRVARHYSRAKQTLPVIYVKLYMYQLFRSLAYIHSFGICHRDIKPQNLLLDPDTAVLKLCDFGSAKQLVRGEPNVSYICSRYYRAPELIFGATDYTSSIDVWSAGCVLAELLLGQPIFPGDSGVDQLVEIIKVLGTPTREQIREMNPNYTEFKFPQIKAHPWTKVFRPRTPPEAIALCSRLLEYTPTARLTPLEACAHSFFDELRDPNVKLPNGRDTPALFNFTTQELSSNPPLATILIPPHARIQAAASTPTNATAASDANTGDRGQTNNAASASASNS
In short: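 Plate-bound recombinant GST-Rb substrate was phosphorylated for 30 min at 37° C by baculovirus-expressed His6-GSK-3β (200 ng/ml) at 20 μM ATP, 10 mM MgCl2, 2.5% DMSO. Europium time-resolved fluorescence of anti-phospho-Ser780 Rb signal gave inhibition, fitted to IC50.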

SMILES | IC50 (CDK5/GST-p25; class symbols) [µM] | IC50 (His6-GSK-3β; class symbols) [µM] | IC50 (CDK5/GST-p25; numeric bounds) [µM] | IC50 (His6-GSK-3β; numeric bounds) [µM] | GSK3β % @10 μM (His6-GSK-3β) [% @10 μM]
O=C1Nc2ccc(F)cc2C1c1nc(NCCN2CCOCC2)nc2c1CCC2 (stereo not drawn) [Example 318, 5-Fluoro-3-[2-(2-morpholin-4-ylethylamino)-6,7-dihydro-5H-cyclopentapyrimidin-4-yl]-1,3-dihydro-indol-2-one] | > 10 | > 10 |  |  | 
CCOCCNc1nc2c(c(C3C(=O)Nc4ccc(F)cc43)n1)CCC2 (stereo not drawn) [Example 319, 3-[2-(2-Ethoxy-ethylamino)-6,7-dihydro-5H-cyclopentapyrimidin-4-yl]-5-fluoro-1,3-dihydro-indol-2-one] | > 10 | > 10 |  |  | 
O=C1Nc2ccc(F)cc2C1c1nc(NCc2ccncc2)nc2c1CCC2 (stereo not drawn) [Example 320, 5-Fluoro-3-{2-[(pyridin-4-ylmethyl)-amino]-6,7-dihydro-5H-cyclopentapyrimidin-4-yl}-1,3-dihydro-indol-2-one] |  |  | > 3 | > 3 | 
O=C1Nc2ccc(F)cc2C1c1nc(NCc2cccnc2)nc2c1CCC2 (stereo not drawn) [Example 321, 5-Fluoro-3-{2-[(pyridin-3-ylmethyl)-amino]-6,7-dihydro-5H-cyclopentapyrimidin-4-yl}-1,3-dihydro-indol-2-one] |  |  | > 3 | > 3 | 
O=C1Nc2ccc(F)cc2C1c1nc(NCc2ccccn2)nc2c1CCC2 (stereo not drawn) [Example 322, 5-Fluoro-3-{2-[(pyridin-2-ylmethyl)-amino]-6,7-dihydro-5H-cyclopentapyrimidin-4-yl}-1,3-dihydro-indol-2-one] |  | > 10 | > 3 |  | 
CN(C)CCNc1nc2c(c(C3C(=O)Nc4ccc(Cl)cc43)n1)CCC2 (stereo not drawn) [Example 323, 5-Chloro-3-[2-(2-dimethylamino-ethylamino)-6,7-dihydro-5H-cyclopentapyrimidin-4-yl]-1,3-dihydro-indol-2-one] | > 10 | > 10 |  |  | 
O=C1Nc2ccc(Cl)cc2C1c1nc(NCCN2CCOCC2)nc2c1CCC2 (stereo not drawn) [Example 324, 5-Chloro-3-[2-(2-morpholin-4-yl-ethylamino)-6,7-dihydro-5H-cyclopentapyrimidin-4-yl]-1,3-dihydro-indol-2-one] |  |  | > 3 | > 3 | 
CCOCCNc1nc2c(c(C3C(=O)Nc4ccc(Cl)cc43)n1)CCC2 (stereo not drawn) [Example 325, 5-Chloro-3-[2-(2-ethoxy-ethylamino)-6,7-dihydro-5H-cyclopentapyrimidin-4-yl]-1,3-dihydro-indol-2-one] | > 10 | > 10 |  |  | 
O=C1Nc2ccc(Cl)cc2C1c1nc(NCc2ccncc2)nc2c1CCC2 (stereo not drawn) [Example 326, 5-Chloro-3-{2-[(pyridin-4-ylmethyl)-amino]-6,7-dihydro-5H-cyclopentapyrimidin-4-yl}-1,3-dihydro-indol-2-one] | > 10 | 0.3 to 3 |  |  | 
O=C1Nc2ccc(Cl)cc2C1c1nc(NCc2cccnc2)nc2c1CCC2 (stereo not drawn) [Example 327, 5-Chloro-3-{2-[(pyridin-3-ylmethyl)-amino]-6,7-dihydro-5H-cyclopentapyrimidin-4-yl}-1,3-dihydro-indol-2-one] |  | 0.3 to 3 | > 3 |  | 
O=C1Nc2ccc(Cl)cc2C1c1nc(NCc2ccc(Cl)nc2)nc2c1CCC2 (stereo not drawn) [Example 328, 5-Chloro-3-{2-[(6-chloro-pyridin-3-ylmethyl)-amino]-6,7-dihydro-5H-cyclopentapyrimidin-4-yl}-1,3-dihydro-indol-2-one] | > 10 | > 10 |  |  | 
O=C1Nc2ccc(Cl)cc2C1c1nc(NCc2ccc(C(F)(F)F)nc2)nc2c1CCC2 (stereo not drawn) [Example 329, 5-Chloro-3-{2-[(6-trifluoromethyl-pyridin-3-ylmethyl)-amino]-6,7-dihydro-5H-cyclopentapyrimidin-4-yl}-1,3-dihydro-indol-2-one] | > 10 | > 10 |  |  | 
O=C1Nc2ccc(Cl)cc2C1c1nc(NCc2ccccn2)nc2c1CCC2 (stereo not drawn) [Example 330, 5-Chloro-3-{2-[(pyridin-2-ylmethyl)-amino]-6,7-dihydro-5H-cyclopentapyrimidin-4-yl}-1,3-dihydro-indol-2-one] | > 10 | > 10 |  |  | 
O=C1Nc2ccc(Br)cc2C1c1nc(NCCCN2CCOCC2)nc2c1CCC2 (stereo not drawn) [Example 331, 5-Bromo-3-[2-(3-morpholin-4-yl-propylamino)-6,7-dihydro-5H-cyclopentapyrimidin-4-yl]-1,3-dihydro-indol-2-one] | > 10 | 0.3 to 3 |  |  | 
O=C1Nc2ccc(Br)cc2C1c1nc(NCCN2CCOCC2)nc2c1CCC2 (stereo not drawn) [Example 332, 5-Bromo-3-[2-(2-morpholin-4-yl-ethylamino)-6,7-dihydro-5H-cyclopentapyrimidin-4-yl]-1,3-dihydro-indol-2-one] |  | 0.3 to 3 | > 3 |  | 
CCCOCCNc1nc2c(c(C3C(=O)Nc4ccc(Br)cc43)n1)CCC2 (stereo not drawn) [Example 333, 5-Bromo-3-[2-(2-propoxy-ethylamino)-6,7-dihydro-5H-cyclopentapyrimidin-4-yl]-1,3-dihydro-indol-2-one] | > 10 | > 10 |  |  | 
CCOCCNc1nc2c(c(C3C(=O)Nc4ccc(Br)cc43)n1)CCC2 (stereo not drawn) [Example 334, 5-Bromo-3-[2-(2-ethoxy-ethylamino)-6,7-dihydro-5H-cyclopentapyrimidin-4-yl]-1,3-dihydro-indol-2-one] | > 10 | > 10 |  |  | 
CN(C)CCCNc1nc2c(c(C3C(=O)Nc4ccc(Br)cc43)n1)CCC2 (stereo not drawn) [Example 335, 5-Bromo-3-[2-(3-dimethylamino-propylamino)-6,7-dihydro-5H-cyclopentapyrimidin-4-yl]-1,3-dihydro-indol-2-one] |  |  | > 3 | > 3 | 
O=C1Nc2ccc(Br)cc2C1c1nc(NCc2ccncc2)nc2c1CCC2 (stereo not drawn) [Example 336, 5-Bromo-3-{2-[(pyridin-4-ylmethyl)-amino]-6,7-dihydro-5H-cyclopentapyrimidin-4-yl}-1,3-dihydro-indol-2-one] | > 10 |  |  | > 3 | 
O=C1Nc2ccc(Br)cc2C1c1nc(NCc2cccnc2)nc2c1CCC2 (stereo not drawn) [Example 337, 5-Bromo-3-{2-[(pyridin-3-ylmethyl)-amino]-6,7-dihydro-5H-cyclopentapyrimidin-4-yl}-1,3-dihydro-indol-2-one] | 0.3 to 3 | 0.3 to 3 |  |  | 
O=C1Nc2ccc(Br)cc2C1c1nc(NCc2ccc(Cl)nc2)nc2c1CCC2 (stereo not drawn) [Example 338, 5-Bromo-3-{2-[(6-chloro-pyridin-3-ylmethyl)-amino]-6,7-dihydro-5H-cyclopentapyrimidin-4-yl}-1,3-dihydro-indol-2-one] |  | > 10 | > 3 |  | 
O=C1Nc2ccc(Br)cc2C1c1nc(NCc2ccccn2)nc2c1CCC2 (stereo not drawn) [Example 339, 5-Bromo-3-{2-[(pyridin-2-ylmethyl)-amino]-6,7-dihydro-5H-cyclopentapyrimidin-4-yl}-1,3-dihydro-indol-2-one] | > 10 | > 10 |  |  | 
N#Cc1ccc2c(c1)C(c1nc(NCCCN3CCOCC3)nc3c1CCC3)C(=O)N2 (stereo not drawn) [Example 340, 3-[2-(3-Morpholin-4-yl-propylamino)-6,7-dihydro-5H-cyclopentapyrimidin-4-yl]-2-oxo-2,3-dihydro-1H-indole-5-carbonitrile] | 0.3 to 3 | 0.3 to 3 |  |  | 
N#Cc1ccc2c(c1)C(c1nc(NCCN3CCOCC3)nc3c1CCC3)C(=O)N2 (stereo not drawn) [Example 341, 3-[2-(2-Morpholin-4-yl-ethylamino)-6,7-dihydro-5H-cyclopentapyrimidin-4-yl]-2-oxo-2,3-dihydro-1H-indole-5-carbonitrile] | 0.3 to 3 | 0.3 to 3 |  |  | 
CN(C)CCCNc1nc2c(c(C3C(=O)Nc4ccc(C#N)cc43)n1)CCC2 (stereo not drawn) [Example 342, 3-[2-(3-Dimethylamino-propylamino)-6,7-dihydro-5H-cyclopentapyrimidin-4-yl]-2-oxo-2,3-dihydro-1H-indole-5-carbonitrile] | 0.3 to 3 | 0.3 to 3 |  |  | 
CCCOCCNc1nc2c(c(C3C(=O)Nc4ccc(C#N)cc43)n1)CCC2 (stereo not drawn) [Example 343, 2-Oxo-3-[2-(2-propoxy-ethylamino)-6,7-dihydro-5H-cyclopentapyrimidin-4-yl]-2,3-dihydro-1H-indole-5-carbonitrile] | > 10 | > 10 |  |  | 
CCOCCNc1nc2c(c(C3C(=O)Nc4ccc(C#N)cc43)n1)CCC2 (stereo not drawn) [Example 344, 3-[2-(2-Ethoxy-ethylamino)-6,7-dihydro-5H-cyclopentapyrimidin-4-yl]-2-oxo-2,3-dihydro-1H-indole-5-carbonitrile] | 0.3 to 3 |  |  |  | 69
N#Cc1ccc2c(c1)C(c1nc(NCCc3ccncc3)nc3c1CCC3)C(=O)N2 (stereo not drawn) [Example 345, 2-Oxo-3-[2-(2-pyridin-4-yl-ethylamino)-6,7-dihydro-5H-cyclopentapyrimidin-4-yl]-2,3-dihydro-1H-indole-5-carbonitrile] | > 10 |  |  |  | 67
N#Cc1ccc2c(c1)C(c1nc(NCCc3ccccn3)nc3c1CCC3)C(=O)N2 (stereo not drawn) [Example 346, 2-Oxo-3-[2-(2-pyridin-2-yl-ethylamino)-6,7-dihydro-5H-cyclopentapyrimidin-4-yl]-2,3-dihydro-1H-indole-5-carbonitrile] | 0.3 to 3 | 0.3 to 3 |  |  | 
N#Cc1ccc2c(c1)C(c1nc(NCc3ccncc3)nc3c1CCC3)C(=O)N2 (stereo not drawn) [Example 347, 2-Oxo-3-{2-[(pyridin-4-ylmethyl)-amino]-6,7-dihydro-5H-cyclopentapyrimidin-4-yl}-2,3-dihydro-1H-indole-5-carbonitrile] | 0.3 to 3 | 0.3 to 3 |  |  | 
